Values belong to the molecule of their own block, whether it stands above or below them. Ends that are not written are not given here. Peptide text beside a SMILES is read from it.
Key:
[1] = target: T1, AT1R (Rattus norvegicus, UniProt P25095); test: [125I]-AII radioligand binding on isolated membranes, AT1R; conditions: competition with [125I]-AII, ligand concentration range 6.4 x 10-12-2.5 x 10^-6 M
T1 construct: expressed in transfected cells; host or cells: HEK-293T, transient, crude membranes
T1 sequence (P25095 1-359): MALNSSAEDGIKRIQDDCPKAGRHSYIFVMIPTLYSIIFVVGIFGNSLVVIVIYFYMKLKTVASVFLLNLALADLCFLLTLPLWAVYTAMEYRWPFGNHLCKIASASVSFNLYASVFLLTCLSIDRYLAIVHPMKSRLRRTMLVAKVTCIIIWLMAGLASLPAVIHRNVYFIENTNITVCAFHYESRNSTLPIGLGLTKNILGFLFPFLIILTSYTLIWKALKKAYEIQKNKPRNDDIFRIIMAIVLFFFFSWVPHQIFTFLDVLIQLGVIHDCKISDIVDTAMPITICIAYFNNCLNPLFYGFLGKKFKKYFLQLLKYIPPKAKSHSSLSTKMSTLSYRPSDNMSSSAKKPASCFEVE

[2] = target: T2, AT2R (Homo sapiens, UniProt P50052); test: Whole cell competition binding assay, AT2R-HEK-293 stable cell line; conditions: for Fold selectivity AT1R/AT2R (IC50AT1R/IC50AT2R): whole cell IC50 values; for IC50: whole cells, Table S4, read-out: Log IC50 AT2R (converted); for fold lower AT2R selectivity in comparison to [Y]6-AII: AT2R/AT1R selectivity relative to [Y]6-AII
T2 construct: expressed in transfected cells
T2 sequence (P50052 1-363): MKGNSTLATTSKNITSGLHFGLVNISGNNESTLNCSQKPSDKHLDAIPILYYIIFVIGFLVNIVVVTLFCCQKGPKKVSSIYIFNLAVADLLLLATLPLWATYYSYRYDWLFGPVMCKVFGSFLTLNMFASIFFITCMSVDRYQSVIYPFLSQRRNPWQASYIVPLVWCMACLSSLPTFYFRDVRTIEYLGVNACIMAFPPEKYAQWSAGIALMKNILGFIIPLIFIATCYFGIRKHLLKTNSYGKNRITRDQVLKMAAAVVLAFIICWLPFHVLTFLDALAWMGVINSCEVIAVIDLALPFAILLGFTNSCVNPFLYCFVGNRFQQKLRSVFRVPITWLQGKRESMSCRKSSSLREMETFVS
Excerpt: (§1) Materials. AT2R receptor-specific blocker PD123319 was purchased from Sigma-Aldrich Chemical Co. (St. Louis, MO). Human AGTR2 pcDNA3.1+ was obtained from the UMR cDNA Resource Center (University of Missouri-Rolla, Rolla, MO). All other chemicals were of analytic grade. The AT1aR and AT2R constructs were a kind gift from Lazlo Hunyady (Semmelweis University, Budapest, Hungary;1).
(§2) Mutagenesis. AT2R mutants were generated as described elsewhere.2
Cell culture and transient transfection. HEK-293T cells were maintained at 37 °C in Dulbecco's modified Eagle's medium (DMEM) supplemented with 10% (v/v) fetal bovine serum (FBS), 2 mM glutamine, 100 U/ml penicillin, and 100 µg/ml streptomycin. Cells were transfected with either AT1R (pcDNA3.1), AT2R
(pcDNAI/Amp) or AT2R variants using GeneJuice transfection reagent according to the manufacturer’s instructions. Cells were harvested 48 hours after transfection, crude membranes were prepared and resuspended in binding buffer (50 mM Tris-HCl pH 7.4, 100 mM NaCl, 10 mM MgCl2, 1mM EDTA, 0.2% BSA and 0.025% Bacitracin, protease inhibitors) at a protein concentration of 3.3 μg/μl as determined by the amido black protein assay. For whole cells assays, HEK-293 cells stably transfected with either AT1R or the AT2R (kindly supplied by Professor W. Thomas, University of Queensland) were used. These cells were grown to approximately 80% confluence and were then re-plated into 48 well plates at 1x10^5 cells/well and grown for 48 hours at 37°C for a whole cell competition binding assay, as described previously.4 Minor differences between the binding assays performed on isolated membrane preparation and whole cells are probably due to the loss of G-protein in the former.5 PC12W cells, a substrain from a clonal isolation of a rat adrenal chromaffin cell tumor, were cultured in DMEM supplemented with 10% FBS, 100 units/ml penicillin and 100μg/ml streptomycin (Invitrogen, Carlsbad, CA) as previously described.6 The cells were incubated in a 5% CO2 humidified incubator at 37°C. Preparation of recombinant replication-deficient adenovirus containing the human AT2R coding region was carried out by VECTOR BIOLABS (Philadelphia, PA).
For gene transduction with adenoviral vectors cells were seeded at 1.2 x 10^5 cells per well in a 6-well plate. After 24 hours, cells were incubated at 37°C for 6 hours in serum-free DMEM containing adenoviral vectors (Ad-AT2R 30 multiplicity of infection (MOI)), and shaken lightly every fifteen minutes. After 6 hr incubation, cells were cultured in 10% FBS containing DMEM at 37°C, 5% CO2 for an additional 24 hours.
Cells were then trypsinized and subcultured at a density of 2 x 10^3 cells per well on a 24-well plate. For the evaluation of the effect of [Y]6-AII analogue on the neurite outgrowth of PC12W cells, at 24 hours after subculture, control cells and the AT2R […]
Radioligand binding assays. Saturation curves on cell membranes were obtained using 10 μg protein per data point and a range of *125I]-AII (Amersham) concentration […]
(§3) 0-10 nM (8 data points in triplicate). Non-specific binding was determined in […]
Competition assays were performed using a concentration […]
the Figure 3. Samples were incubated for 2 hours at 4°C. Receptor-bound and free radioligand were separated by filtration through Whatman GF/B filters, pre-soaked with 0.3% polyethylamine. The filters were washed with 5 ml of ice-cold binding buffer and transferred to scintillation tubes. Radioactivity was counted on a Beckman LS6000 liquid scintillation counter and data were analyzed by non-linear regression using Prism software (GraphPad). Ki values were calculated according to the Cheng […]
Experiments on whole cells were performed in both AT1R- and AT2R-HEK-293 stable cell lines, as previously described in detail4 with minor modifications. Novel peptides and references compounds, CGP42112 and candesartan, were examined for their ability to inhibit specific binding of [125I]-Ang II, and nonspecific binding was determined using 10μM cold Ang II. […]

[3] = system: PAR4 receptor; design: method as in Faruqi T., et al. [12]; conditions: ref Faruqi T., et al. [12]; cited from earlier work
[4] = system: PAR1 receptor; design: method as in Faruqi T., et al. [12]; conditions: ref Faruqi T., et al. [12]; cited from earlier work
[5] = target: AT2R; test: [125I]-AII radioligand binding on isolated membranes, wild type AT2R; conditions: saturation assay, membranes of transfected HEK-293T cells, 2 hours on ice
Excerpt: as §1, §2
Cell culture and transient transfection. HEK-293T cells were maintained at 37 °C in Dulbecco's modified Eagle's medium (DMEM) supplemented with 10% (v/v) fetal bovine serum (FBS), 2 mM glutamine, 100 U/ml penicillin, and 100 µg/ml streptomycin. […]
(§4) (pcDNAI/Amp) or AT2R variants using GeneJuice transfection reagent according to the manufacturer’s instructions. Cells were harvested 48 hours after transfection, crude membranes were prepared and resuspended in binding buffer (50 mM Tris-HCl pH 7.4, 100 mM NaCl, 10 mM MgCl2, 1mM EDTA, 0.2% BSA and 0.025% Bacitracin, protease inhibitors) at a protein concentration of 3.3 μg/μl as determined by the amido black protein assay. […]
as §3
the Figure 3. […] Radioactivity was counted on a Beckman LS6000 liquid scintillation counter and data were analyzed by non-linear regression using Prism software (GraphPad). […]

[6] = system: AT2R-overexpressing PC12W cells; test: Neurite outgrowth in AT2R-overexpressing PC12W cells; format: cell-based, rat; conditions: Ad-AT2R transduced PC12W cells, 1 nM, 24 h stimulation; dose-dependent in the range of 1 pM to 100 nM
Experimental: Figure 3 (a) Competition binding assays of [Y]^6-AII analogue to AT1R, AT2R wild type, and mutants: AT1R, open circle; wild type AT2R, black circles; AT2R-Y189A, blue diamonds; AT2R-Y189N, green triangle; AT2R-F272(6.51)A, red square; AT2R-F272(6.51)H, orange triangle. Kd and Ki values are given in Supplementary Table S3. […] The neurite outgrowth-positive cells were defined as the cells with neurite length longer than their cell diameters. This experiment was carried out in triplicate and repeated twice.
as §1
Mutagenesis. AT2R mutants were generated as described elsewhere.2 […]
as §4

Molecule: CC[C@H](C)[C@H](NC(=O)[C@H](Cc1ccc(O)cc1)NC(=O)[C@@H](NC(=O)[C@H](CCCNC(=N)N)NC(=O)[C@@H](N)CC(=O)O)C(C)C)C(=O)N[C@@H](Cc1ccc(OP(=O)(O)O)cc1)C(=O)N1CCC[C@H]1C(=O)N[C@@H](Cc1ccccc1)C(=O)O [[4-OPO3H2-F]^6-AII, D1-R2-V3-Y4-I5-(4-OPO3H2-F)6-P7-F8] (HELM PEPTIDE1{D.R.V.Y.I.[O=C([C@H](Cc1ccc(OP(=O)(O)O)cc1)N[*:1])[*:2]].P.F}$$$$V2.0)
- Ki AT1R [1]: No detectable competitive binding
- Fold selectivity AT1R/AT2R (IC50AT1R/IC50AT2R) [2]: 4479 fold
- IC50 [2]: 9.57 nM

Molecule: CC[C@H](C)[C@H](NC(=O)[C@H](Cc1ccc(O)cc1)NC(=O)[C@@H](NC(=O)[C@H](CCCNC(=N)N)NC(=O)[C@@H](N)CC(=O)O)C(C)C)C(=O)N[C@@H](Cc1ccc([N+](=O)[O-])cc1)C(=O)N1CCC[C@H]1C(=O)N[C@@H](Cc1ccccc1)C(=O)O [[4-NO2-F]^6-AII, D1-R2-V3-Y4-I5-(4-NO2-F)6-P7-F8] (HELM PEPTIDE1{D.R.V.Y.I.[O=C([C@H](Cc1ccc([N+](=O)[O-])cc1)N[*:1])[*:2]].P.F}$$$$V2.0)
- Fold selectivity AT1R/AT2R (IC50AT1R/IC50AT2R) [2]: 694 fold
- fold lower AT2R selectivity in comparison to [Y]6-AII [2]: 26 fold
- IC50 [2]: 4.92 nM

- IC50 [2]: 1.4 nM
Molecule: DRVYIFPF [[F]^6-AII, D1-R2-V3-Y4-I5-F6-P7-F8] [listing 1 of 2 here]

- Ki AT1R [1]: No detectable competitive binding
- Fold selectivity AT1R/AT2R (IC50AT1R/IC50AT2R) [2]: 18,000 fold
Molecule: DRVYIYPF [[Y]^6-AII, D1-R2-V3-Y4-I5-Y6-P7-F8]

- IC50 [2]: 13500 nM
Molecule: CCOc1nc2cccc(C(=O)O)c2n1Cc1ccc(-c2ccccc2-c2nnn[nH]2)cc1 [Candesartan, candesartan]

Molecule: GFPGKF
- PAR4 receptor activity [3]: 53
- PAR1 receptor activity [4]: 35

- Kd [5]: 2.3 nM
Molecule: [125I]-AII: radioiodinated AII, radioligand of the binding assays (DRVYIHPF; also: 125I label, position not given here; UniProt P01019 25-32, looked up)

- Fold selectivity AT1R/AT2R (IC50AT1R/IC50AT2R) [2]: 4786 fold
- fold lower AT2R selectivity in comparison to [Y]6-AII [2]: ~4 fold
Molecule: DRVYIFPF [[F]^6-AII, D1-R2-V3-Y4-I5-F6-P7-F8] [listing 2 of 2 here]

Molecule: GYPGKF
- PAR4 receptor activity [3]: 55
- PAR1 receptor activity [4]: 0

- IC50 [2]: 0.558 nM
Molecule: CC[C@H](C)[C@H](NC(=O)[C@@H]1CCCN1C(=O)[C@H](Cc1c[nH]cn1)NC(=O)[C@H](CCCCNC(=O)[C@H](CCCN=C(N)N)NC(=O)OCc1ccccc1)NC(=O)[C@H](Cc1ccc(O)cc1)NC(=O)c1cccnc1)C(=O)O [CGP42112] (HELM PEPTIDE1{[O=C(c1cccnc1)[*:2]].Y.K.H.P.I}|PEPTIDE2{[O=C(OCc1ccccc1)[*:2]].R}$PEPTIDE1,PEPTIDE2,3:R3-2:R2$$$V2.0)

- Kd [5]: 2.3 nM
Molecule: CC[C@H](C)[C@H](NC(=O)[C@H](Cc1ccc(O)cc1)NC(=O)[C@@H](NC(=O)[C@H](CCCNC(=N)N)NC(=O)[C@@H](N)CC(=O)O)C(C)C)C(=O)N[C@@H](Cc1c[nH]cn1)C(=O)N1CCC[C@H]1C(=O)N[C@@H](Cc1ccccc1)C(=O)O [AII]
- neurite outgrowth [6]: significantly stimulated neurite outgrowth

Molecule: G(F)PGKF
- PAR4 receptor activity [3]: 61
- PAR1 receptor activity [4]: 111
